US6403532B1, “Herbicidal synergistic composition, and method of controlling weeds” (Syngenta Crop Protection, Inc., priority 1995, dated 2002)

Key:
Assay type in all cases: in vivo
[1] = system: transplanted rice; experiment: Herbicidal activity in paddy rice (transplanted), run-in method: crop plant tolerance
Description: (§1) Herbicidal Activity in Paddy Rice (transplanted):
(§2) The test plants are sown or planted in standard soil in shallow plastic containers under greenhouse conditions. The containers are then filled with water to soil level. After 3 days, the water level is raised by 2 cm, and the test substances are applied in the form of an aqueous suspension (Formulation Example F7, c)) by the run-in method (application into the water). The test plants are then grown on in the greenhouse under optimal conditions. 25 days after application, the test is evaluated using a % scale (100%=complete damage, 0%=no activity).
(§3) Test plants: transplanted rice, Sagittaria pygmaea, Scirpus juncoides and Heterantera.

[2] = system: Scirpus juncoides; experiment: Herbicidal activity in paddy rice (transplanted), run-in method: Scirpus juncoides; conditions: 25 days after application
Source text: (§4) A synergistic effect is always present when the activity of the active ingredient combination I and II, and/or III, and/or IV and/or V exceeds the total of the activity of the active ingredients applied singly.
(§5) The expected herbicidal activity Ae for a given combination of two herbicides can be calculated as follows (cf. COLBY, S. R., “Calculating synergistic and antagonistic response of herbicide combinations”, Weeds 15, pages 20-22, 1967):
(§6) X=per cent herbicidal activity in the treatment with the compound of formula I using a rate of application of p kg per hectare in comparison with untreated control (=0%).
(§7) Y=per cent herbicidal activity in the treatment with the compound of formulae II to V using a rate of application of q kg per hectare in comparison with untreated control.
(§8) Ae=expected herbicidal activity (per cent herbicidal activity comparison with the untreated control) after treatment with the compounds of formulae I and II to V at a rate of application of p+q kg of active ingredient per hectare.
(§9) If the activity actually observed exceeds the expected value Ae, synergism is present.
as §1, §2, §3

[3] = system: Heterantera; experiment: Herbicidal activity in paddy rice (transplanted), run-in method: Heterantera; conditions: 25 days after application
Source text: as §4, §5, §6, §7, §8, §9, §1, §2, §3

[4] = system: Sagittaria pygmaea; experiment: Herbicidal activity in paddy rice (transplanted), run-in method: Sagittaria pygmaea; conditions: 25 days after application
Source text: as §4, §5, §6, §7, §8, §9, §1, §2, §3
Table B1: Experiments in transplanted rice with Sagittaria pygmaea, using the run-in method

[5] = 250 g of active ingredient/ha, run-in method, 25 days after application
[6] = 500 g of active ingredient/ha, run-in method, 25 days after application
[7] = 60 g of active ingredient/ha, run-in method, 25 days after application

Structure (SMILES): CCOC(=O)c1cnn(C)c1S(=O)(=O)NC(=O)Nc1nc(OC)cc(OC)n1 [1.2]
- Crop plant transplanted rice ([1]; 8 g of active ingredient/ha, run-in method, 25 days after application): 0%
- Crop plant transplanted rice ([1]; 15 g of active ingredient/ha, run-in method, 25 days after application): 0%
- Crop plant transplanted rice ([1]; 30 g of active ingredient/ha, run-in method, 25 days after application): 0%
- Weed Scirpus junc. ([2]; 15 g of active ingredient/ha): 0%
- Weed Scirpus junc. ([2]; 30 g of active ingredient/ha): 20%
- Weed Heterantera ([3]; 8 g of active ingredient/ha): 0%
- Weed Heterantera ([3]; 15 g of active ingredient/ha): 0%
- Weed Heterantera ([3]; 30 g of active ingredient/ha): 0%

Structure (SMILES): CCCCOC(=O)[C@@H](C)Oc1ccc(Oc2ccc(C#N)cc2F)cc1 [3.1, butyl (R)-2-[4-(4-cyano-2-fluorophenoxy)phenoxy]propionate]
- Crop plant transplanted rice ([1]; 125 g of active ingredient/ha, run-in method, 25 days after application): 0%
- Crop plant transplanted rice [1, 5]: 0%
- Weed Sagittaria pygm. ([4]; 125 g of active ingredient/ha): 0%
- Weed Sagittaria pygm. ([4]; 250 g of active ingredient/ha): 0%
- Weed Scirpus junc. ([2]; 125 g of active ingredient/ha): 0%
- Weed Scirpus junc. ([2]; 250 g of active ingredient/ha): 0%
- Weed Heterantera ([3]; 125 g of active ingredient/ha): 0%
- Weed Heterantera ([3]; 250 g of active ingredient/ha): 0%

Structure (SMILES): COCCOc1ccccc1S(=O)(=O)NC(=O)Nc1nc(OC)nc(OC)n1 [1.3]
- Crop plant transplanted rice ([1]; 6 g of active ingredient/ha, run-in method, 25 days after application): 0%
- Crop plant transplanted rice ([1]; 12 g of active ingredient/ha, run-in method, 25 days after application): 0%
- Crop plant transplanted rice ([1]; 24 g of active ingredient/ha, run-in method, 25 days after application): 15%
- Weed Sagittaria pygm. ([4]; 6 g of active ingredient/ha): 70%
- Weed Sagittaria pygm. ([4]; 12 g of active ingredient/ha): 75%
- Weed Sagittaria pygm. ([4]; 24 g of active ingredient/ha): 94%

Structure (SMILES): CCC(=O)Nc1ccc(Cl)c(Cl)c1 [2.2, 3′,4′-dichloropropionanilide]
- Crop plant transplanted rice [1, 6]: 0%
- Crop plant transplanted rice ([1]; 1000 g of active ingredient/ha, run-in method, 25 days after application): 0%
- Weed Sagittaria pygm. ([4]; 500 g of active ingredient/ha): 0%
- Weed Sagittaria pygm. ([4]; 1000 g of active ingredient/ha): 0%
- Weed Scirpus junc. ([2]; 500 g of active ingredient/ha): 0%
- Weed Scirpus junc. ([2]; 1000 g of active ingredient/ha): 35%
- Weed Heterantera ([3]; 1000 g of active ingredient/ha): 0%

Structure (SMILES): Clc1cc(Cl)nc(-c2ccccc2)n1 [VI, 4,6-dichloro-2-phenylpyrimidine]
- Crop plant transplanted rice ([1]; in vivo): 0%
- Weed Sagittaria pygm. ([4]; 125 g of active ingredient/ha): 0%
- Weed Heterantera ([3]; 125 g of active ingredient/ha): 0%

Structure (SMILES): CCCOCCN(C(=O)CCl)c1c(CC)cccc1CC [2.3, 2-chloro-2′,6′-diethyl-N-(2-propoxyethyl)acetanilide]
- Crop plant transplanted rice [1, 7]: 0%
- Crop plant transplanted rice [1, 5]: 0%
- Crop plant transplanted rice ([1]; 375 g of active ingredient/ha, run-in method, 25 days after application): 0%
- Crop plant transplanted rice [1, 6]: 0%
- Weed Sagittaria pygm. ([4]; 250 g of active ingredient/ha): 25%
- Weed Sagittaria pygm. ([4]; 375 g of active ingredient/ha): 55%
- Weed Sagittaria pygm. ([4]; 500 g of active ingredient/ha): 50%
- Weed Heterantera ([3]; 60 g of active ingredient/ha): 0%
- Weed Heterantera ([3]; 375 g of active ingredient/ha): 80%

Structure (SMILES): CN(C(=O)COc1nc2ccccc2s1)c1ccccc1 [2.1, 2-(1,3-benzothiazol-2-yloxy)-N-methylacetanilide]
- Crop plant transplanted rice ([1]; in vivo): 0%
- Weed Sagittaria pygm. ([4]; 500 g of active ingredient/ha): 0%
- Weed Sagittaria pygm. ([4]; 1000 g of active ingredient/ha): 0%
- Weed Scirpus junc. ([2]; 125 g of active ingredient/ha): 0%
- Weed Scirpus junc. ([2]; 250 g of active ingredient/ha): 65%
- Weed Scirpus junc. ([2]; 500 g of active ingredient/ha): 94%
- Weed Heterantera ([3]; 500 g of active ingredient/ha): 40%
- Weed Heterantera ([3]; 1000 g of active ingredient/ha): 50%

Structure (SMILES): COc1cc(OC)nc(Sc2cccc3c2C(=O)OC3C)n1 (stereo not shown) [I]
- Crop plant transplanted rice [1, 7]: 0%
- Crop plant transplanted rice ([1]; 120 g of active ingredient/ha, run-in method, 25 days after application): 0%
- Crop plant transplanted rice ([1]; 240 g of active ingredient/ha, run-in method, 25 days after application): 0%
- Weed Sagittaria pygm. ([4]; 60 g of active ingredient/ha): 0%
- Weed Sagittaria pygm. ([4]; 120 g of active ingredient/ha): 0%
- Weed Sagittaria pygm. ([4]; 240 g of active ingredient/ha): 0%
- Weed Scirpus junc. ([2]; 60 g of active ingredient/ha): 0%
- Weed Scirpus junc. ([2]; 120 g of active ingredient/ha): 50%
- Weed Scirpus junc. ([2]; 240 g of active ingredient/ha): 92%
- Weed Heterantera ([3]; 60 g of active ingredient/ha): 0%
- Weed Heterantera ([3]; 120 g of active ingredient/ha): 0%
- Weed Heterantera ([3]; 240 g of active ingredient/ha): 70%
